Activity calls are given as the source filed them. The rule behind the calls is not given here.
What was measured:
[1] = Stability of the compound in THF/phosphate buffer at pH 6.5 incubated for 2 hrs under stirring conditions by 1H-NMR analysis; format: physicochemical; details: pH 6.5, 2 h
[2] = test system: Mus musculus; test: Anti-inflammatory activity against MOG35-55-induced experimental autoimmune encephalomyelitis C57BL/6 mouse model assessed as fold change in PLP gene expression in brain at 600 mg/kg/day, ig for 14 days starting from 12th day of immunization by RT-qPCR analysis relative to control; format: functional; details: time 14 day
[3] = test system: Mus musculus; test: Anti-inflammatory activity against MOG35-55-induced experimental autoimmune encephalomyelitis C57BL/6 mouse model assessed as fold change in MMP9 gene expression in brain at 600 mg/kg/day, ig for 14 days starting from 12th day of immunization by RT-qPCR analysis relative to control; format: functional; details: time 14 day
[4] = test system: Mus musculus; test: Anti-inflammatory activity against MOG35-55-induced experimental autoimmune encephalomyelitis C57BL/6 mouse model assessed as fold change in CXCL10 gene expression in brain at 300 mg/kg/day, ig for 14 days starting from 12th day of immunization by RT-qPCR analysis relative to control; format: functional; details: time 14 day
[5] = test system: Mus musculus; test: Anti-inflammatory activity against MOG35-55-induced experimental autoimmune encephalomyelitis C57BL/6 mouse model assessed as fold change in STAT3 gene expression in brain at 300 mg/kg/day, ig for 14 days starting from 12th day of immunization by RT-qPCR analysis relative to control; format: functional; details: time 14 day
[6] = test system: Mus musculus; test: Anti-inflammatory activity against MOG35-55-induced experimental autoimmune encephalomyelitis C57BL/6 mouse model assessed as reduction in TGB1 protein expression in brain at 300 to 600 mg/kg/day, ig for 14 days starting from 12th day of immunization by western blot analysis; format: functional, organism-based; details: dose 300-600 mg/kg/day, time 14.0 day
[7] = test system: Mus musculus; test: Anti-inflammatory activity against MOG35-55-induced experimental autoimmune encephalomyelitis C57BL/6 mouse model assessed as upregulation of PLP protein expression in brain at 300 to 600 mg/kg/day, ig for 14 days starting from 12th day of immunization by western blot analysis relative to control; format: functional; details: dose 300-600 mg/kg/day, time 14 day
[8] = test system: Mus musculus; test: Anti-inflammatory activity against MOG35-55-induced experimental autoimmune encephalomyelitis C57BL/6 mouse model assessed as reduction in serum Th1 cytokine level by measuring reduction in TNF-alpha level at 600 mg/kg/day, ig for 14 days starting from 12th day of immunization by ELISA; format: functional, organism-based; details: time 14.0 day
[9] = test system: Mus musculus; test: Anti-inflammatory activity against MOG35-55-induced experimental autoimmune encephalomyelitis C57BL/6 mouse model assessed as methylation of CpG sites of […] gene promoter in brain at 600 mg/kg, ig for 14 days starting from 12th day of immunization by PCR analysis (reference value: 45 +/-7%); format: functional; details: time 14 day
[10] = test system: Mus musculus; test: Anti-inflammatory activity against MOG35-55-induced experimental autoimmune encephalomyelitis C57BL/6 mouse model assessed as reduction in EAE symptoms by measuring reduction in clinical score at 0.15 to 0.3 mg/kg/day, ig starting from 12th day of immunization and measured on day 14 post-immunization; format: functional, organism-based; details: dose 0.15-0.3 mg/kg/day, time 2.0 day
[11] = test system: Mus musculus; test: Anti-inflammatory activity against MOG35-55-induced experimental autoimmune encephalomyelitis C57BL/6 mouse model assessed as fold change in MAG gene expression in brain at 0.3 mg/kg/day, ig for 14 days starting from 12th day of immunization by RT-qPCR analysis relative to control; format: functional; details: time 14 day
[12] = test system: Mus musculus; test: Anti-inflammatory activity against MOG35-55-induced experimental autoimmune encephalomyelitis C57BL/6 mouse model assessed as fold change in CXCL10 gene expression in brain at 0.15 mg/kg/day, ig for 14 days starting from 12th day of immunization by RT-qPCR analysis relative to control; format: functional; details: time 14 day
[13] = test system: Mus musculus; test: Anti-inflammatory activity against MOG35-55-induced experimental autoimmune encephalomyelitis C57BL/6 mouse model assessed as fold change in TNF-alpha gene expression in brain at 0.15 mg/kg/day, ig for 14 days starting from 12th day of immunization by RT-qPCR analysis relative to control; format: functional; details: time 14 day
[14] = test system: Mus musculus; test: Anti-inflammatory activity against MOG35-55-induced experimental autoimmune encephalomyelitis C57BL/6 mouse model assessed as fold change in IL6 gene expression in brain at 0.15 mg/kg/day, ig for 14 days starting from 12th day of immunization by RT-qPCR analysis relative to control; format: functional; details: time 14 day
[15] = test system: Mus musculus; test: Anti-inflammatory activity against MOG35-55-induced experimental autoimmune encephalomyelitis C57BL/6 mouse model assessed as fold change in TGFB1 gene expression in brain at 0.15 mg/kg/day, ig for 14 days starting from 12th day of immunization by RT-qPCR analysis relative to control; format: functional; details: time 14 day
[16] = test system: Mus musculus; test: Anti-inflammatory activity against MOG35-55-induced experimental autoimmune encephalomyelitis C57BL/6 mouse model assessed as reduction in serum Th1 cytokine level by measuring reduction in TNF-alpha level at 0.3 mg/kg/day, ig for 14 days starting from 12th day of immunization by ELISA; format: functional, organism-based; details: time 14.0 day
[17] = test system: Mus musculus; test: Anti-inflammatory activity against MOG35-55-induced experimental autoimmune encephalomyelitis C57BL/6 mouse model assessed as reduction in serum Th1 cytokine level by measuring reduction in IFNG level at 0.3 mg/kg/day, ig for 14 days starting from 12th day of immunization by ELISA; format: functional, organism-based; details: time 14.0 day
[18] = test system: Mus musculus; test: Anti-inflammatory activity against MOG35-55-induced experimental autoimmune encephalomyelitis C57BL/6 mouse model assessed as reduction in serum Th1 cytokine level by measuring reduction in IL-2 level at 0.3 mg/kg/day, ig for 14 days starting from 12th day of immunization by ELISA; format: functional, organism-based; details: time 14.0 day
[19] = test system: Mus musculus; test: Anti-inflammatory activity against MOG35-55-induced experimental autoimmune encephalomyelitis C57BL/6 mouse model assessed as reduction in serum chemokines level by measuring reduction in IL-3 level at 0.3 mg/kg/day, ig for 14 days starting from 12th day of immunization by ELISA; format: functional, organism-based; details: time 14.0 day
[20] = test system: Mus musculus; test: Anti-inflammatory activity against MOG35-55-induced experimental autoimmune encephalomyelitis C57BL/6 mouse model assessed as reduction in serum chemokines level by measuring reduction in CXCL1 level at 0.3 mg/kg/day, ig for 14 days starting from 12th day of immunization by ELISA; format: functional, organism-based; details: time 14.0 day
[21] = test system: Mus musculus; test: Anti-inflammatory activity against MOG35-55-induced experimental autoimmune encephalomyelitis C57BL/6 mouse model assessed as methylation of CpG sites of IL10RA gene promoter in brain at […], ig for 14 days starting from 12th day of immunization by PCR analysis (reference value: 34.9 +/-4%); format: functional; details: time 14 day
[22] = test system: Mus musculus; test: Anti-inflammatory activity against MOG35-55-induced experimental autoimmune encephalomyelitis C57BL/6 mouse model assessed as methylation of CpG sites of […] gene promoter in brain at […], ig for 14 days starting from 12th day of immunization by PCR analysis (reference value: 45 +/-7%); format: functional; details: time 14 day
[23] = test system: Mus musculus; test: Anti-inflammatory activity against MOG35-55-induced experimental autoimmune encephalomyelitis C57BL/6 mouse model assessed as methylation of CpG sites of TGFB1 gene promoter in brain at […], ig for 14 days starting from 12th day of immunization by PCR analysis (reference value: 18.3 +/-4%); format: functional; details: time 14 day

With `CCCCCCCCCCCCCCCCCCCCCCCCC(=O)O[C@H]1CC[C@]2(C)[C@H]3CC=C4[C@@H]5CC(C)(C)CC[C@]5(CO)CC[C@@]4(C)[C@]3(C)CC[C@H]2C1(C)C` the Stability [1] was “Stable”, the “fold change (FC)” value [2] was 1.14 and the “fold change (FC)” value [3] was 2.8. The “fold change (FC)” value [4] was 3.24, the “fold change (FC)” value [5] was 1.54 and the Activity [6] was “Active”. The “fold change (FC)” value [7] was 2, the Activity [8] was “Active” and the Activity [9] was 44.7%.

In the case of `CCCCCCCCc1ccc(CCC(N)(CO)CO)cc1` [FINGOLIMOD], the Activity [10] is reported as “Active”, the “fold change (FC)” value [11] is reported as -3.16 and the “fold change (FC)” value [12] is reported as 5.21. The “fold change (FC)” value [13] was 2.21, the “fold change (FC)” value [14] was 4.34 and the “fold change (FC)” value [15] was 1.86. The Activity [16] was “Active”, the Activity [17] was “Active” and the Activity [18] was “Active”. The Activity [19] was “Active”, the Activity [20] was “Active” and the Activity [21] was 51%. The Activity [22] was 44.9% and the Activity [23] was 35.1%.
